Source: patent publication US20240366638A1, “[…] FOR TREATING PSY[…]” (SYNAPTIVE THERAPEUTICS LLC, priority 2021, published 2024)
“Also recorded” adds a separate entry of the source.

How the values were obtained:
[1] = test system: male C57BL/6 mice; experiment: Open field test (OFT), time in center zone; assay type: in vivo; parameters: key to OFT (center time): ↓ = decrease; ↑ = increase; neg = negative; pos = positive; ns = not statistically significant; conditions: for OFT (center time): summary of effect on behavior, doses tested IP; for Time in the center zone of the open field chamber, statistical comparison between groups: various doses IP, 30 min period, one-way ANOVA with Tukey's test, diazepam positive control
Method: (§1) Methods. The open field test (OFT) was conducted by placing a mouse in a gray chamber 40×40 cm of 30 cm height and allowed to explore at will for 30 minutes. A digital camera positioned above the chamber recorded behavior. Animals that spend more time in the center (open area) compared to along the walls (thigmotaxis) are deemed less anxious. The open field apparatus was cleaned with Peroxigard wipes after each use.
(§2) Statistical analysis. Data were analyzed using a one-way ANOVA with drug dose as the primary factor. Post-hoc multiple comparison analysis was performed following significant main effects using Tukey's multiple comparisons test (GraphPad Prism 9.2.0). Statistical significance was set at P<0.05.
(§3) Results. A total of 170 male C57BL/6 mice were used for this study (see TABLE 3.). One mouse in the diazepam group died of unknown causes. Another mouse developed a skin condition in the aeruginascin (1.0 mg/kg) group and was excluded from the FST test. All other test groups consisted of N=10 per group. Statistical comparisons are noted in each figure legend.

[2] = test system: male C57BL/6 mice; experiment: Open field test (OFT), locomotor activity; assay type: in vivo; parameters: key to OFT: ↓ = decrease; ↑ = increase; neg = negative; pos = positive; ns = not statistically significant; conditions: for OFT: summary of effect on overall locomotor activity, doses tested IP, mice; for Locomotor activity in the open field, statistical comparison between groups: various doses IP, 30 min period, one-way ANOVA with Tukey's test, diazepam positive control
Method: as §1, §2, §3

[3] = test system: male C57BL/6 mice; experiment: Elevated plus maze (EPM), time on open arms; assay type: in vivo; parameters: key to EPM: ↓ = decrease; ↑ = increase; neg = negative; pos = positive; ns = not statistically significant; conditions: for EPM: summary of effect on behavior (time on open arms), doses tested IP; for Time spent on the open arms of the EPM, statistical comparison between groups: various doses IP, 5 minutes, one-way ANOVA with Tukey's test, diazepam positive control
Method: (§4) The elevated plus maze (EPM) is a behavioral assay that measures anxiety in rodents. The apparatus is composed of open and closed arms arranged in a “plus” measuring, 35 cm arm length; 5 cm arm width; 20 cm wall height and stands 61 cm height. Each mouse was placed on the maze within the center area facing towards an open arm and allowed to explore the EPM for 5 minutes. The experimenter observed the mouse from outside the test room through an observational window. Behavior was recorded via a digital camera mounted above the maze. The apparatus was cleaned with Peroxigard wipes after each trial.
as §2, §3

[4] = test system: male C57BL/6 mice; experiment: Tail suspension test (TST); assay type: in vivo; conditions: for TST: summary of effect on behavior, doses tested IP, mice; for Tail suspension test activity (time immobile), statistical comparison between groups: various doses IP, 6 minutes, one-way ANOVA with Tukey's test, ketamine positive control
Method: (§5) The tail-suspension test (TST) is a model of depression and has been used to screen prospective antidepressant compounds. It involves suspending mice above the ground by their tails with tape for a predetermined time. A 17 cm piece of tape was taped to the tail (2 cm of the 17 cm) of each mouse and then attached to a metal shelf for 6 minutes. Each mouse was digitally recorded and data analyzed using specialized software with particular focus on time immobile. After the trial, tape was removed and mice returned to their home cage.
as §2, §3

[5] = test system: male C57BL/6 mice; experiment: Forced swim test (FST); assay type: in vivo; parameters: key to FST: ↓ = decrease; ↑ = increase; neg = negative; pos = positive; ns = not statistically significant; conditions: for FST: summary of effect on behavior, doses tested IP, mice; for Forced swim test activity, statistical comparison between groups: various doses IP, 6 minutes, one-way ANOVA with Tukey's test, ketamine positive control
Method: (§6) The forced swim test is a classic behavioral assay to test for depressive behavior such as immobility. The apparatus is composed of a Plexiglas cylinder measuring (20 cm diameter, 45 cm height) that is filled with water maintained at room temperature (23-25 C). During testing, mice were placed into the water by the nape of the neck facing the wall and released and behavior recorded via a digital camera for 6 minutes. After the test, mice were dried off with a towel and placed in their home cage in which half is heated by a heating pad placed underneath the cage. Fecal matter was removed after every test. Water was changed after 10 mice were run in each cylinder. After the completion of the experiment, water was drained and the cylinder cleaned with Peroxigard wipes.
as §2, §3

[6] = test system: male C57BL/6 mice; experiment: Animal models of anxiety and depression in mice, overall (OFT, EPM, TST, FST); assay type: in vivo; conditions: IP, FST taken together
Method: Summary. The goal of the present project was to assess psilocybin metabolites in animal models of anxiety and depression in mice. Specifically, baeocystin (0.3 mg/kg-30 mg/kg), norbaeocystin (0.3-3.0 mg/kg), aeruginascin (0.3-3.0 mg/kg) and norpsilocin (0.3-3.0 mg/kg) were tested in the open field test (OFT), elevated plus maze (EPM), tail suspension test (TST) and forced swim test (FST). Overall, most compounds were ineffective and/or increased negative behaviors.
as §1, §4, §5
as §6, with “After the completion of the experiment, water was drained and the cylinder cleaned with Peroxigard wipes.” left out
Statistical analysis. Data were analyzed using a one-way ANOVA with drug dose as the primary factor. […]

[7] = cited from earlier work

SMILES | OFT (center time) ([1]; mice) | Time in the center zone of the open field chamber, statistical comparison between groups [1] | OFT [2] | Locomotor activity in the open field, statistical comparison between groups [2] | EPM ([3]; mice) | Time spent on the open arms of the EPM, statistical comparison between groups [3] | TST [4] | Tail suspension test activity (time immobile), statistical comparison between groups [4] | FST [5] | Forced swim test activity, statistical comparison between groups [5] | Overall effect across behavioral tests of anxiety and depression [6] | Time spent on the open arms in the EPM ([3]; 10 mg/kg, IP, mice) | Time spent on the open arm in the EPM ([3]; 30 mg/kg (highest dose), IP, mice) | Hallucinogenic effect in a self-administered assay ([7]; 4 mg of baeocystin, Gartz research paper) | Psychoactivity in humans compared with psilocybin ([7]; 10 mg of baeocystin, study reported by Gartz) | Time spent in the center zone in the OFT ([1]; 3.0 mg/kg, IP, mice)
NCCc1c[nH]c2cccc(OP(=O)(O)O)c12 [Norbaeocystin] | ↓ (neg) | significant difference between diazepam and the highest dose of norbeaocystin | ns | a trend towards a difference between norbaeocystin 1.0 vs. 3.0 mg/kg | ns | no differences between groups | ↑ (neg) | significant differences between saline and ketamine and all doses of norbaeocystin | ns | no significant differences between groups | either produced no significant effect or a significant negative impact across all behavioral tests | – | – | – | – | –
CNCCc1c[nH]c2cccc(OP(=O)(O)O)c12 [Baeocystin] | ns | no significant difference between groups | ↓ (neg) | significant differences between the highest dose of baeocystin and all other groups | ↑ (pos) | the highest dose of baeocystine increased time spent on the open arm compared to saline | ↑ (neg) | significant differences between the two highest doses of baeocystin and other groups | ns | no significant differences between groups | can exert anxiolytic effects in mice using certain behavioral procedures; also recorded: have anxiolytic activity and no harmful psychoactive effects, including no depressive activity | tended to increase time spent on the open arms however, this did not reach statistical significance | significantly increased time spent on the open arm | a gentle hallucinogenic experience | about as psychoactive as a similar amount of psilocybin | –
C[N+](C)(C)CCc1c[nH]c2cccc(OP(=O)(O)O)c12 [Aeruginascin] | ns | no significant differences between groups | ↓ (neg) | significant difference between aeruginascin 0.3 and 1.0 mg/kg | ns | no differences between groups | ↑ (neg) | significant differences between saline and ketamine and all doses of aeruginascin | ↑ (neg) | significant differences between ketamine and aeruginascin 0.3 and 3.0 mg/kg doses | either produced no significant effect or a significant negative impact across all behavioral tests | – | – | – | – | –
CNCCc1c[nH]c2cccc(O)c12 [Norpsilocin] | ↑ (pos) | significantly increased time spent in the center zone of the OFT; also recorded: highly significant differences between the highest dose of norpsilocin and all other groups | ↓ (neg) | significant differences between diazepam and norpsilocin 1.0 and 3.0 mg/kg | ns | no differences between groups | ↑ (neg) | significant differences between ketamine and all doses of norpsilocin | ns | no differences between any groups | can exert anxiolytic effects in mice using certain behavioral procedures; also recorded: have anxiolytic activity and no harmful psychoactive effects, including no depressive activity | – | – | – | – | the only compound that increased time spent in the center zone in the OFT and this effect was highly significant
